Reference: PubChem BioAssay AID248 (DTP/NCI, 2004)
“And” between values parts separate entries of the source, which are not always exact repeats. Equal values may be shown once. Inconclusive results and toxic doses are left out. No stated cut-off is given here; in the data, active means T/C of 150% or more; inactive means T/C below 125%.

Tested on: L1210 leukemia ip in BDF1 mice, survival T/C
Experiment: NCI In Vivo Anticancer Drug Screen. Data for tumor model L1210 Leukemia (intraperitoneal) in B6D2F1 (BDF1) mice
Conditions: endpoint: mean survival time, higher = longer survival
Outline: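 Antitumor effect is assessed in tumor-bearing animals. Survival in the compound arm is compared with a vehicle-dosed control arm and expressed as their quotient.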

[1] = dose: 100.0 mg/kg/injection, schedule: Q01DX001 (ip), vehicle: carboxymethylcellulose (CMC)
[2] = dose: 200.0 mg/kg/injection, schedule: Q01DX001 (ip), vehicle: carboxymethylcellulose (CMC)
[3] = dose: 400.0 mg/kg/injection, schedule: Q01DX001 (ip), vehicle: carboxymethylcellulose (CMC)
[4] = dose: 100.0 mg/kg/injection, schedule: Q04DX003 (ip), vehicle: Klucel (hydroxypropylcellulose) (HPC)
[5] = dose: 200.0 mg/kg/injection, schedule: Q04DX003 (ip), vehicle: Klucel (hydroxypropylcellulose) (HPC)
[6] = dose: 400.0 mg/kg/injection, schedule: Q04DX003 (ip), vehicle: Klucel (hydroxypropylcellulose) (HPC)
[7] = dose: 100.0 mg/kg/injection, schedule: Q01DX009 (ip), vehicle: Klucel (hydroxypropylcellulose) (HPC)
[8] = dose: 200.0 mg/kg/injection, schedule: Q01DX009 (ip), vehicle: Klucel (hydroxypropylcellulose) (HPC)
[9] = dose: 400.0 mg/kg/injection, schedule: Q01DX009 (ip), vehicle: Klucel (hydroxypropylcellulose) (HPC)
[10] = dose: 100.0 mg/kg/injection, schedule: Q01DX009 (ip), vehicle: saline
[11] = dose: 100.0 mg/kg/injection, schedule: Q04DX003 (ip), vehicle: saline
[12] = dose: 200.0 mg/kg/injection, schedule: Q01DX009 (ip), vehicle: saline
[13] = dose: 200.0 mg/kg/injection, schedule: Q04DX003 (ip), vehicle: saline
[14] = dose: 400.0 mg/kg/injection, schedule: Q01DX009 (ip), vehicle: saline
[15] = dose: 400.0 mg/kg/injection, schedule: Q04DX003 (ip), vehicle: saline

Measured: T/C

CC(C)CCC[C@@H](C)[C@H]1CC[C@H]2[C@@H]3CC=C4C[C@@H](Cl)CC[C@]4(C)[C@H]3CC[C@]12C
inactive: dose: 100.0 mg/kg/injection, schedule: Q01DX009 (sc), vehicle: Klucel (hydroxypropylcellulose) (HPC) 110 % of control | dose: 200.0 mg/kg/injection, schedule: Q01DX009 (sc), vehicle: Klucel (hydroxypropylcellulose) (HPC) 101 % of control | dose: 400.0 mg/kg/injection, schedule: Q01DX009 (sc), vehicle: Klucel (hydroxypropylcellulose) (HPC) 114 % of control

CC(=O)N(C(C)=O)N(C(C)=O)C(=O)c1ccccn1
inactive: dose: 100.0 mg/kg/injection, schedule: Q01DX001 (ip), vehicle: water 106 % of control | dose: 200.0 mg/kg/injection, schedule: Q01DX001 (ip), vehicle: water 101 % of control | dose: 400.0 mg/kg/injection, schedule: Q01DX001 (ip), vehicle: water 106 % of control

CCCCCCCCCCCCCCCC(=O)N(CCCC)CCCC
inactive: [1] 98 % of control | dose: 100.0 mg/kg/injection, schedule: Q01DX009 (ip), vehicle: carboxymethylcellulose (CMC) 96 % of control and 110 % of control | dose: 100.0 mg/kg/injection, schedule: Q04DX003 (ip), vehicle: carboxymethylcellulose (CMC) 96 % of control | [2] 102 % of control | dose: 200.0 mg/kg/injection, schedule: Q01DX009 (ip), vehicle: carboxymethylcellulose (CMC) 100 % of control and 110 % of control | dose: 200.0 mg/kg/injection, schedule: Q04DX003 (ip), vehicle: carboxymethylcellulose (CMC) 94 % of control | [3] 102 % of control | dose: 400.0 mg/kg/injection, schedule: Q01DX009 (ip), vehicle: carboxymethylcellulose (CMC) 96 % of control and 104 % of control | dose: 400.0 mg/kg/injection, schedule: Q04DX003 (ip), vehicle: carboxymethylcellulose (CMC) 96 % of control

O=C(Oc1ccccc1C(=O)O)c1ccccc1O
inactive: dose: 50.0 mg/kg/injection, schedule: Q04DX003 (ip), vehicle: Klucel (hydroxypropylcellulose) (HPC) 90 % of control | [4] 97 % of control and 102 % of control | [5] 114 % of control | [6] 96 % of control

Brc1nnnn1-c1ccccc1
inactive: [7] 99 % of control | [4] 97 % of control | [8] 98 % of control | [5] 108 % of control | [9] 96 % of control | [6] 94 % of control

CCOC(=O)CP(=O)(OCC)OCC
inactive: [10] 103 % of control | [11] 109 % of control | [12] 106 % of control | [13] 102 % of control | [14] 99 % of control | [15] 113 % of control

C#CC1=CCCC1
inactive: dose: 100.0 mg/kg/injection, schedule: Q01DX001 (ip), vehicle: saline 95 % of control | dose: 200.0 mg/kg/injection, schedule: Q01DX001 (ip), vehicle: saline 100 % of control | dose: 400.0 mg/kg/injection, schedule: Q01DX001 (ip), vehicle: saline 95 % of control

CCOC(=O)C1(C(=O)OCC)CC(C)C1
inactive: [10] 101 % of control | [11] 101 % of control | [12] 108 % of control | [13] 93 % of control | [14] 96 % of control | [15] 104 % of control

CC(C)N(CCCCO)C(C)C
inactive: [1] 91 % of control

CC(N)(CCCN)C(=O)O (centres undefined)
inactive: [10] 102 % of control | [11] 104 % of control | [12] 102 % of control | [13] 102 % of control | [14] 94 % of control | [15] 101 % of control

C/C(=C\C(=O)Nc1ncn[nH]1)Nc1ncn[nH]1
inactive: [7] 100 % of control | [4] 95 % of control | [8] 92 % of control | [5] 106 % of control | [9] 102 % of control | [6] 93 % of control

CNC(=O)O/N=C(/C)c1ccc(Cl)cc1
inactive: [1] 93 % of control | [2] 101 % of control | [3] 101 % of control

c1ccc2c(SCCC3CCCCC3)nnnc2c1
inactive: dose: 100.0 mg/kg/injection, schedule: Q04DX003 (ip), vehicle: acetone 89 % of control | dose: 200.0 mg/kg/injection, schedule: Q04DX003 (ip), vehicle: acetone 98 % of control | dose: 400.0 mg/kg/injection, schedule: Q04DX003 (ip), vehicle: acetone 93 % of control

CCC[CH2][Sn]([CH2]CC#N)([CH2]CCC)[CH2]CCC
inactive: dose: 25.0 mg/kg/injection, schedule: Q04DX002 (ip), vehicle: saline 97 % of control | dose: 50.0 mg/kg/injection, schedule: Q04DX002 (ip), vehicle: saline 94 % of control

CS(=O)(=O)n1c(CO)nc2ccccc21
inactive: [1] 101 % of control | [2] 92 % of control | [3] 97 % of control
